Measured values from article PMC8410836, “Rational design of hyperstable antibacterial peptides for food preservation” (NPJ Science of Food, 2021).
Values after ≈ are worked out from the molar mass of the structure shown. Where two headings read alike, the source gives them in different places. Where a SMILES comes first, the peptide text is derived from it. Bridges are numbered along the chain shown (N, C = ends).

How the values were obtained:
[1] = system: human red blood cells (hRBCs); conditions: peptide 0 to 200 μg/mL, 4% hRBCs in PBS, 1 h, 37 °C, absorbance 414 nm, Triton X-100 = 100%; three biological replicates
Description: The hemolytic activity of the peptide was evaluated using human red blood cells (hRBCs). Erythrocytes were separated from 1 mL of blood by centrifugation at 1500 rpm for 10 min. Collected hRBCs were washed three times with PBS, diluted to 4% (v/v) in PBS. Hundred microliters of the hRBCs having peptides ranging from 4 to 200 µg/mL as added into 96-well microtiter plate. The plates were incubated for 1 h at 37 °C without agitation and centrifuged at 1500 rpm for 5 min. Aliquots (100 μL) of the supernatant were transferred to 96-well plates and absorbance was measured at 414 nm. PBS and 1% Triton X-100 were used as control for 0% and 100% hemolysis, respectively. Percentage of hemolysis was calculated as (AT − AC)/(AX − AC) × 100; where AT is the experimental absorbance of treated supernatants, AC is the control absorbance of PBS-treated cell supernatant, and AX is the absorbance of 0.1% (v/v) Triton X-100 lysed cells. Data presented are averages and standard error from three biological replicate experiments.

bovine trypsin [2] = target: T1, bovine trypsin (Bos taurus, UniProt P00760); test: biochemical; conditions: SEM
T1 sequence (P00760 24-246): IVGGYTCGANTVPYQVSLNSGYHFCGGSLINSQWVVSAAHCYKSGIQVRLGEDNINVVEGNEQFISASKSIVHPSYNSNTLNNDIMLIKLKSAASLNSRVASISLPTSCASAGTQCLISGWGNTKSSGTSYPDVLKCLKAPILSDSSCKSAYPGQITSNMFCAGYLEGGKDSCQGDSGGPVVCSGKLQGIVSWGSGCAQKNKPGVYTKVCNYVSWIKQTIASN
Description: (§3) The amidase activity of trypsin and its inhibition was assayed using the chromogenic substrate BAPNA at pH 8.2 in 0.05 M Tris-HCl containing 0.02 M CaCl2 at 37 °C. The assay reaction contained 50 µL of trypsin solution (40–50 μg of trypsin in 1 mM HCl), 50 µL of water, and 125 µL of the substrate. The reaction was carried out at 37 °C for 10 min and stopped by addition of 0.25 mL of 30% acetic acid. […] The trypsin solution was incubated with an aliquot of inhibitor for 10 min at 37 °C and reaction started by the addition of 125 µL substrate and incubated at 37 °C for 10 min. […] The effect of varying substrate concentration (BAPNA) on bovine trypsin in the presence of fixed concentrations of peptides was studied. The inhibition constants (Ki) were evaluated using the double reciprocal and Dixon plot of the data[65],[66]. Data presented are averages and standard error calculated from two biological replicate experiments.

[3] = system: Salmonella typhimurium ATCC9844
Description: (§1) Four Gram-positive bacteria: Listeria monocytogenes ATCC13932, Bacillus cereus ATCC11778, Staphylococcus aureus ATCC12900, and Micrococcus luteus ATCC4698 and three Gram-negative bacteria: Escherichia coli ATCC11775, Pectobacterium carotovorum MCC2112, and Salmonella typhimurium ATCC9844 were used in this study. These strains were stored at −80 °C in 25% (v/v) glycerol.
(§2) Antimicrobial assays against various bacterial cultures were done using the microdilution broth assay according to the Clinical and Laboratory Standards Institute (CLSI)[64] with some modifications. Mueller-Hinton broth was used to dilute the peptide stock and the bacterial inoculum. Inoculum was prepared from the mid-logarithmic phase culture. Each well of the microtiter plates received aliquots of 100 µL of the media containing different concentrations of peptide ranging from 0.3 to 300 µg/mL. The final concentration of bacteria in the wells was 5 × 10^5 Colony Forming Units (CFU) per mL. Ampicillin was used as positive control. For negative control, ultrapure water was used instead of peptides. Microtiter plates were incubated at 37 °C for 5–6 h with continuous shaking at 130 rpm (M. luteus cells were incubated for 7–8 h). The incubation time used for these assays was initially optimized using a 20-h incubation period. […] MIC assays were performed as three independent experiments in triplicates.

[4] = system: Bacillus cereus ATCC11778
Description: as §1, §2

[5] = system: Staphylococcus aureus ATCC12900
Description: as §1, §2

[6] = system: Micrococcus luteus ATCC4698
Description: as §1, §2

[7] = system: Listeria monocytogenes ATCC13932
Description: as §1, §2

[8] = system: Escherichia coli ATCC11775
Description: as §1, §2

[9] = system: Pectobacterium carotovorum MCC2112
Description: as §1, §2

B. cereus spores = format: cell-based, Bacillus cereus; conditions: spore suspension, resazurin; repeated at least twice
Description: B. cereus spores were used to test the effect of peptides on spore germination. Spores were prepared by inoculating 3 mL MH media with B. cereus cells and incubating at 30 °C at 180 rpm for 12 h. 2.5 mL of the culture was inoculated into a 250 mL MH media and incubated at 30 °C for 72 h. Furthermore, culture was temperature-treated at 80 °C for 30 min to eliminate the vegetative cells. Spore suspension was stored at 4 °C until further use. Two microliters of spore suspension was used to test the effect of HSEP3 and Nisin on spore germination using resazurin. All experiments were repeated at least twice.

B. cereus [10] = system: B. cereus
Description: as §2
To determine the stability of HSEP3 at higher temperatures, 20 μL of HSEP3 (4 mg/mL) and 20 μL of Nisin in a 0.5 mL tube were autoclaved (for moist heat) at 121 °C for 20 min or heated at 95 °C for 30 min (for dry heat) and cooled to room temperature. Mixture was then used to test the antibacterial activity as previously described. Experiments were repeated in LB media to study the effect of complex media on antibacterial activity. All the experiments were repeated at least two times.

bovine trypsin [11] = target: T1, bovine trypsin; conditions: BAPNA substrate, pH 8.2, 0.05 M Tris-HCl, 0.02 M CaCl2, 37 °C, double reciprocal and Dixon plot, mean and standard error of two biological replicates
Description: as §3

B. cereus [12] = test: Propidium iodide (PI) uptake assay; format: cell-based, Bacillus cereus; conditions: peptides at 2X MIC, Fig. 4e; three biological replicates
Description: B. cereus and M. luteus were grown in MH broth to logarithmic phase of growth and then diluted to OD600 ~ 0.25. Serial dilutions of the antimicrobial peptides (final concentrations, 0–100 μg/mL) were added to the wells of a black-walled microplate. Hundred microliters of the bacterial suspension containing PI (final concentration, 10 μM) was added to the wells. The emitted fluorescence was measured at excitation and emission wavelengths of 585 and 620 nm, respectively, for 2 h using a multimode plate reader (Varioskan Flash, Thermo Scientific, USA). The percentage of membrane permeabilization was calculated as the percent of fluorescent intensity of peptide-treated samples with respect to fluorescence intensity of PI-loaded, peptide untreated samples. PI uptake assays were performed as three independent experiments in triplicates.

ARPE-19 cells = conditions: 16 h, WST-1, Fig. 10a ARPE-19
Description: Cytotoxicity against adult retinal pigmented epithelial (ARPE-19, ATCC CRL2302) cells was measured using WST assay. ARPE-19 cells growing in log phase were seeded into 96-well cell-culture plates at 4 × 10^4 the cells were incubated at 37 °C for 24 h under 5% CO2. Peptide is added with final concentrations of 4–200 µg/mL in Dulbecco’s modified Eagle medium (DMEM/F12). Nutrient mixture media for the treatment group, whereas for the negative control group, media alone was added. The cells were incubated for 16 h at 37 °C under 5% CO2. Ten microliters of WST-1 reagent was added into each well. Plate was incubated at 37 °C for 2 h. Color intensity was measured at 450 nm. Cytotoxicity data presented are averages and standard error from three biological replicate experiments.

[13] = microdilution broth, MH broth, 5 × 10^5 CFU/mL, 37 °C, 5–6 h, resazurin
[14] = microdilution broth (CLSI, modified), Mueller-Hinton broth, 5 × 10^5 CFU/mL, 37 °C, 7–8 h, resazurin colour change, three independent experiments in triplicates

Structure (SMILES)	hemolytic activity [1] [%]	Ki (bovine trypsin [2]) [µM]	MIC Salmonella typhimurium [3, 13] [µg/mL]	MIC Bacillus cereus [4, 13] [µg/mL]	MIC Staphylococcus aureus [5, 13] [µg/mL]	MIC (µg/mL) M. luteus [6, 14] [µg/mL]	MIC Listeria monocytogenes [7, 13] [µg/mL]	MIC Escherichia coli [8, 13] [µg/mL]	MIC Pectobacterium carotovorum [9, 13] [µg/mL]	other results
CC[C@H](C)[C@H](NC(=O)[C@@H](NC(=O)[C@H](CO)NC(=O)[C@@H](N)CCCNC(=N)N)C(C)C)C(=O)N[C@@H](Cc1ccccc1)C(=O)NCC(=O)N[C@H]1CSSC[C@@H](C(=O)N[C@@H](Cc2ccccc2)C(=O)N[C@H](C(=O)NCC(=O)N[C@@H](Cc2ccccc2)C(=O)N[C@@H](CCCCN)C(=O)O)C(C)C)NC(=O)[C@H]([C@@H](C)CC)NC(=O)[C@@H]2CCCN2C(=O)[C@@H]2CCCN2C(=O)[C@H]([C@@H](C)CC)NC(=O)[C@H](CO)NC(=O)[C@H](CCCCN)NC(=O)[C@H]([C@@H](C)O)NC1=O [HSEP3] (H-RSVIFGCTKSIPPICFVGFK-OH; disulfide 7-15)	< 5	0.2	85 (≈ 38.7 µM)	12.5 (≈ 5.69 µM)	150 (≈ 68.3 µM)	1.25 (≈ 0.569 µM)	50 (≈ 22.8 µM)	150 (≈ 68.3 µM)	50 (≈ 22.8 µM)	Inhibition of B. cereus spore germination (MIC) (B. cereus spores): 12.5 µg/mL; Effect of steam heat on antibacterial activity (in complex media), MIC (B. cereus [10]; autoclaved at 121 °C for 20 min, LB media): 50 µg/mL; Effect of steam heat on antibacterial activity (in MH media), MIC (B. cereus [10]; autoclaved at 121 °C for 20 min, MH media): 12.5 µg/mL; Effect of dry heat on antibacterial activity, MIC (B. cereus [10]; heated at 95 °C for 30 min): 12.5 µg/mL
CC[C@H](C)[C@H](NC(=O)[C@@H](NC(=O)[C@@H](N)CO)C(C)C)C(=O)N[C@@H](Cc1ccccc1)C(=O)NCC(=O)N[C@H]1CSSC[C@@H](C(=O)N[C@@H](Cc2ccccc2)C(=O)N[C@H](C(=O)NCC(=O)N[C@@H](Cc2ccccc2)C(=O)N[C@@H](CCCCN)C(=O)O)C(C)C)NC(=O)[C@H]([C@@H](C)CC)NC(=O)[C@@H]2CCCN2C(=O)[C@@H]2CCCN2C(=O)[C@H]([C@@H](C)CC)NC(=O)[C@H](CO)NC(=O)[C@H]([C@@H](C)O)NC1=O [HSEP2-∆K8] (H-SVIFGCTSIPPICFVGFK-OH; disulfide 6-13; N-terminus and C-terminus assumed)										Ki (M) against bovine trypsin (bovine trypsin [11]; listed as HSEP2-ΔK8): failed to show any trypsin inhibition; PI uptake fluorescence intensity of treated bacterial cells (B. cereus [12]): minimal fluorescence intensity; MIC (µg/mL) M. luteus ([6]; microdilution broth (CLSI, modified), Mueller-Hinton broth, 5 × 10^5 CFU/mL, 37 °C, 7–8 h, resazurin colour change, three independent experiments in triplicates, listed as HSEP2-ΔK8): did not show any antibacterial activity
CC[C@H](C)[C@H](NC(=O)[C@@H](NC(=O)[C@H](CO)NC(=O)[C@@H](N)CCCNC(=N)N)C(C)C)C(=O)N[C@@H](Cc1ccccc1)C(=O)NCC(=O)N[C@H]1CSSC[C@@H](C(=O)N[C@@H](Cc2ccccc2)C(=O)N[C@H](C(=O)NCC(=O)N[C@@H](Cc2ccccc2)C(=O)N[C@@H](CCCCN)C(=O)O)C(C)C)NC(=O)[C@H](Cc2ccccc2)NC(=O)[C@H](CCCNC(=N)N)NC(=O)[C@H](CCCNC(=N)N)NC(=O)[C@H](Cc2ccc(O)cc2)NC1=O [HSEP3-∆TL,CL^+] (H-RSVIFGCYRRFCFVGFK-OH; disulfide 7-12)										Ki (M) against bovine trypsin (bovine trypsin [11]): did not show any anti-trypsin activity; MIC Salmonella typhimurium ([3]; ATCC9844): >150 µg/mL; MIC Bacillus cereus ([4]; ATCC11778): >150 µg/mL; MIC Staphylococcus aureus ([5]; ATCC12900): >150 µg/mL; MIC (µg/mL) M. luteus ([6]; ATCC4698): 3.125 µg/mL (≈ 1.5 µM); MIC Listeria monocytogenes ([7]; ATCC13932): >150 µg/mL; MIC Escherichia coli ([8]; ATCC11775): >150 µg/mL; MIC Pectobacterium carotovorum [9]: >150 µg/mL
CC[C@H](C)[C@H](NC(=O)[C@@H](NC(=O)[C@@H](N)CO)C(C)C)C(=O)N[C@@H](Cc1ccccc1)C(=O)NCC(=O)N[C@H]1CSSC[C@@H](C(=O)N[C@@H](Cc2ccccc2)C(=O)N[C@H](C(=O)NCC(=O)N[C@@H](Cc2ccccc2)C(=O)N[C@@H](CCCCN)C(=O)O)C(C)C)NC(=O)[C@H]([C@@H](C)CC)NC(=O)[C@@H]2CCCN2C(=O)[C@@H]2CCCN2C(=O)[C@H]([C@@H](C)CC)NC(=O)[C@H](CO)NC(=O)[C@H](CCCCN)NC(=O)[C@H]([C@@H](C)O)NC1=O [HSEP2] (H-SVIFGCTKSIPPICFVGFK-OH; disulfide 6-14)	< 5	0.58	>150	75 (≈ 36.7 µM)	>150	6.25 (≈ 3.06 µM)	>150	150 (≈ 73.5 µM)	150 (≈ 73.5 µM)	cell viability (ARPE-19 cells; peptide concentration 200 µg/mL): > 70%; cell viability (ARPE-19 cells; peptide concentration range 0–160 µg/mL, three biological replicates): > 80%
